# Experimental data from patent publication US20190231793A1, “USE OF HARRINGTONINES IN THE TREATMENT OF BREAST CANCER, IN PARTICULAR TRIPLE-NEGATIVE BREAST CANCER” (priority 2016, published 2019).
# Where two headings read alike, the source gives them in different places.
# Assays:
# [1] = cytotoxic = toxicity for tumor cells in culture; anticancer = data obtained in clinical trials; cited from earlier work
# CAL-51 [2] = assay: Cell cycle by flow cytometry; type: cell-based; conditions: CAL-51, 48 hours, 20 nM HHT
# Method: (§1) Cell cycle and apoptosis: the number of cells in different phases of the cell cycle or in apoptosis was determined by flow cytometry using FITC Annexin V Apoptosis Detection Kit 1 (BD Biosciences) and following the manufacturer's recommendations. Briefly, 3×10^4 cells of each line were seeded in 6-well plates and, after 24 h resting, treated with increasing concentrations of HHT for 6-72 h, then washed and incubated with propidium iodide and or with FITC annexin V). The fluorescence was measured using a BD LSH II cytofluorometer (BD Biosciences).
# MDA-MB-231 [3] = assay: Cell cycle by flow cytometry; type: cell-based; conditions: MDA-MB-231, 48 hours, 20 nM or 50 nM HHT
# Method: as §1
# MDA-MB-468 [4] = assay: Cell cycle by flow cytometry; type: cell-based; conditions: MDA-MB-468, 48 hours, 20 nM or 50 nM HHT
# Method: as §1
# MDA-MB-157 [5] = assay: Cell cycle by flow cytometry; type: cell-based; conditions: MDA-MB-157, 48 hours, 50 nM HHT
# Method: as §1
# MDA-MB-231 xenograft = assay: In vivo study on MDA-MB-231 triple negative breast tumor xenograft; set-up: species or system Swiss nudes immuno-depressed mice (nu/nu); conditions: 1 mg of HHT (as salt) per kg subcutaneously twice daily for 8 days; difference between day 0 and day 10; control group increased 20-30%
# Method: The efficacy of homoharringtonine in vivo on xenografts of the triple-negative breast cancer line (MDA-MB-231), was performed on Swiss nudes immuno-depressed mice (nu/nu), […]. −12 weeks. The tumor was grafted in 16 animals, by injecting 5×10^6 cells of the tumor strain, subcutaneously in the dorsal region, until a tumor volume of 200-300 mm 3 was obtained. 8 mice received 1 mg of HHT (as salt) per kg subcutaneously twice daily for 8 days. The control group (7 mice) received only physiological saline in the same dosage as HHT. Mice were sacrificed 3 days after stopping treatment, recovered xenografts, and measured tumor size. The tissues were then formalin-fixed and paraffin-embedded for subsequent histological analyzes.
# [6] = test system: apoptosis regulatory proteins in MDA-MB-231; assay: Western blot, expression of apoptosis regulatory proteins in line MDA-MB-231; type: cell-based; conditions: 100 nM HHT
# Method: (§2) Western blot: 5×10^5 cells, in 10 ml of medium, were inoculated in the 100 mm Petri dishes. After 24 hours of rest, the cells were incubated with 100 nM of HHT for different times, staggered for 2 hours and 48 hours. Then, the cells were washed and lysed directly into the dishes (without trypsinization) using RIPA buffer (Pierce-ThermoScientific), containing a mixture of protease inhibitors (Sigma). The protein concentration was determined by the method of Bradford. Protein electrophoresis was performed in 12-30% polyacrylamide gels. After transfer to the PVDF membrane, the revelation was carried out by ECL Plus (Amersham).
# survivin = assay: Western blot, expression of apoptosis regulatory proteins; type: cell-based; conditions: 100 nM HHT; CAL-51; same effect as for Mcl-1 (very fast and strong drop)
# Method: as §2
# Mcl-1 = assay: as above; type: cell-based; conditions: 100 nM HHT; all lines analyzed except MDA-MB-231 (CAL-51, MDA-MB-468, MDA-MB-157)
# Method: as §2
# XIAP = assay: as above; type: cell-based; conditions: 100 nM HHT; compared with Mcl-1
# Method: as §2
# MDA-MB-231 [7] = assay: Cell viability (SRB), inhibition of cell proliferation; type: cell-based; conditions: Homo sapiens; for viability at 0.05 µM / viability at 0.1 µM: read-out: viable fraction (Fv=% of viable cells)
# Method: (§3) MDA-MB-468 (PTEN, RB1, SMAD4, mutated TP53, amplified EGFR/ERBB1) and MDA-MB-231 (highly metastatic, without alteration of PI3K-Akt-mTOR; KRAS, BRAF, CDKN2A, PDGFRA, (NF2, Mutated TP53) were cultured in Liebowitz's medium+10% FCS+200 μg/ml gentamycin, in a CO2-free atmosphere
# (§4) Drug: commercial HHT (Sigma-Aldrich), purified by recrystallization according to Liu's technique [U.S. Pat. No. 62,073, 14 May 1987], was provided free of charge by LeukePharma (Le Mans, France). The stock solution of 20 mM HHT citrate was obtained by dissolution in citric acid (Sigma-Aldrich), in equimolar amount or by direct dissolution of the crystalline homoharringtonine salt in sterile purified water. The following dilutions of this stock solution were performed using sterile PBS buffer. All of the solutions was stored at −80° C.
# (§5) Cell viability: The cells were seeded in the 96-well plates at the concentration of 5000 cells/well (3.3×10^4/ml) for the MDA-MB-lines, and at the concentration of 1000 cells/well (6.6×10 3 ml) for CAL-51. After 24 hours of rest, at the confluence of 50-60%, the cells were treated with increasing concentrations of HHT for 24 h, 48 h and 72 h. After washing twice with sterile PBS and 48 h rest, the cells were fixed with trichloroacetic acid. After the addition of […] (SRB), the absorbance was measured at 540 nm (Multiskan™ FC plate photometer, Thermo Scientific). IC50s were calculated by CompuSyn (Chou & Talalay, ComboSyn Inc., Paramus, N.J., USA).
# MDA-MB-468 [8] = assay: as above; type: cell-based
# Method: as §3, §4, §5
# CAL-51 [9] = assay: as above; type: cell-based
# Method: (§6) Cell Lines: CAL-51 (PIK3CA mutated) and MDA-MB-157 (without apparent genomic alteration of the PI3K-AKT-mTOR axis (NF1, TP53 mutated) were cultured in DMEM+10% FCS+200 μg/ml gentamicin, in humidified atmosphere, at 5% CO 2.
# as §4, §5
# MDA-MB-157 [10] = assay: as above; type: cell-based
# Method: as §6, §4, §5
# CAL-51 [11] = assay: Apoptosis by flow cytometry (FITC Annexin V); type: cell-based; conditions: increasing concentrations, 6-72 h
# Method: as §1
# MDA-MB-231 [12] = assay: Apoptosis by flow cytometry (FITC Annexin V); type: cell-based; conditions: regardless of concentration or incubation time
# Method: as §1
# MDA-MB-468 [13] = assay: Apoptosis by flow cytometry (FITC Annexin V); type: cell-based; conditions: increasing concentrations, 6-72 h
# Method: as §1
# MDA-MB-157 [14] = assay: Apoptosis by flow cytometry (FITC Annexin V); type: cell-based; conditions: increasing concentrations, 6-72 h
# Method: as §1
# [15] = 24 h, 48 h, 72 h, regardless of the concentrations (p>0.05)
# [16] = Homo sapiens, 24 hours, range given for 3 out of 4 lines analyzed
compound,measurement,setting,value
"COC(=O)C[C@](O)(CCC(C)(C)O)C(=O)O[C@@H]1C(OC)=C[C@]23CCCN2CCc2cc4c(cc2[C@H]13)OCO4 [(1a), harringtonine]",Activity,[1],anticancer
"COC(=O)CC(O)(CC(C)(C)O)C(=O)OC1C(OC)=CC23CCCN2CCc2cc4c(cc2C13)OCO4 (stereo not shown) [(1c), norharringtonine]",Activity,[1],none
"COC(=O)C[C@](O)(CCC(C)C)C(=O)O[C@@H]1C(OC)=C[C@]23CCCN2CCc2cc4c(cc2[C@H]13)OCO4 [(1d), deoxyharringtonine]",Activity,[1],anticancer
"COC(=O)CC(O)(CCCCC(C)(C)O)C(=O)OC1C(OC)=CC23CCCN2CCc2cc4c(cc2C13)OCO4 (stereo not shown) [(1e), bishomoharringtonine]",Activity,[1],none
"COC(=O)[C@@H](O)[C@](O)(CCC(C)C)C(=O)O[C@@H]1C(OC)=C[C@]23CCCN2CCc2cc4c(cc2[C@H]13)OCO4 [(1f), isoharringtonine]",Activity,[1],none
"COC(=O)C[C@](O)(CCCC(C)(C)O)C(=O)O[C@@H]1C(OC)=C[C@]23CCCN2CCc2cc4c(cc2[C@H]13)OCO4 [HHT, homoharringtonine]",effect on the cell cycle,CAL-51 [2],accumulation of CAL-51 and MDA-MB-157 cells in Set GO/G1 phase
same,effect on the cell cycle,MDA-MB-231 [3],stopped in the G2/M phase
same,effect on the cell cycle,MDA-MB-468 [4],stopped in the G2/M phase
same,effect on the cell cycle,MDA-MB-157 [5],accumulation of CAL-51 and MDA-MB-157 cells in Set GO/G1 phase
same,decrease in tumor volume,MDA-MB-231 xenograft,20 to 60%
same,level of apoptosis regulatory proteins,[6],no effect
same,Activity,[1],anticancer
same,level of survivin,survivin,same effect
same,level of Mcl-1,Mcl-1,very fast and strong drop
same,reduction in the XIAP rate,XIAP,more modest and occurred later
same,viability at 0.05 µM,"MDA-MB-231 [7]; MDA-MB-231, 24 h",58.1 ± 14.5%
same,viability at 0.1 µM,"MDA-MB-231 [7]; MDA-MB-231, 24 h",41.7 ± 13.3%
same,viability at 0.05 µM,"MDA-MB-231 [7]; MDA-MB-231, 72 h",25.9 ± 2.4%
same,viability at 0.1 µM,"MDA-MB-231 [7]; MDA-MB-231, 72 h",18.7 ± 4.8%
same,IC50,"MDA-MB-231 [7]; MDA-MB-231, 24 hours",80.5 nM
same,effect on proliferation versus incubation time,MDA-MB-468 [8]; [15],independent of the incubation time
same,IC50,MDA-MB-468 [8]; [16],15.9 to 21.3 nM
same,effect on proliferation versus incubation time,CAL-51 [9]; [15],independent of the incubation time
same,IC50,CAL-51 [9]; [16],15.9 to 21.3 nM
same,effect on proliferation versus incubation time,MDA-MB-157 [10]; [15],independent of the incubation time
same,IC50,MDA-MB-157 [10]; [16],15.9 to 21.3 nM
same,effect on apoptosis (% of cells in early and late apoptosis),CAL-51 [11],"induces apoptosis of CAL-51, MDA-MB-468 and MDA-MB-157 cells in a concentration and time dependent manner"
same,effect on apoptosis (% of cells in early and late apoptosis),MDA-MB-231 [12],no significant apoptosis was observed
same,effect on apoptosis (% of cells in early and late apoptosis),MDA-MB-468 [13],"induces apoptosis of CAL-51, MDA-MB-468 and MDA-MB-157 cells in a concentration and time dependent manner"
same,effect on apoptosis (% of cells in early and late apoptosis),MDA-MB-157 [14],"induces apoptosis of CAL-51, MDA-MB-468 and MDA-MB-157 cells in a concentration and time dependent manner"
neoharringtonine [(1g)],Activity,[1],cytotoxic
